# Measurements reported in patent publication US9085606B2, “Beta amino acid derivatives as integrin antagonists” (Saint Louis University, priority 2012, dated 2015).
# How the values were obtained:
# [1] = molecular target: T1, Recombinant human integrin αvβ6 (Homo sapiens, UniProt P06756+P18564); assay: Solid Phase Receptor Assay for αvβ6 Function; conditions: binding to LAP-coated plate; read-out: αvβ6 SPRA IC50
# T1 construct: purchased R&D Systems 3817-AV
# Procedure: Solid Phase Receptor Assay for αvβ6 Function.
# (§1) Wells were washed 3 times with 150 μL TBS+, and 150 μL of blocking buffer (TBS+ with 1% bovine serum albumin, Sigma A7906) were added. The plate was incubated for 1 hr at 37° C., and then washed 3× with TBS+ buffer. […] Compounds were diluted 1:100 into the integrin solution and then 50 μL added to empty wells of the washed LAP-coated plate according to a standard template with each sample repeated in triplicate. After incubation for two hours at room temperature, the plate was washed 3× with 150 μL of TBS+ buffer. To each well, 50 μL of biotinylated anti-αv antibody (R&D Systems, BAF1219) at 0.5 μg/mL in TBS+/0.1% BSA were added and the plate was covered and incubated for 1 hr at room temperature. After washing the plate 3× with 150 μL of TBS+ buffer, 50 μL of streptavidin-conjugated horseradish peroxidase (R&D Systems, DY998) diluted in TBS+ blocking buffer were added to the wells and the plate incubated for 20 min at room temperature. The plate was washed 3× with TBS+ buffer followed by 50 μL of TMB substrate (Sigma T4444) added to each well and the plate incubated for 20 min at room temperature. The reaction was optionally stopped with 25 μL of Stop Solution (Sigma S5689). Plates were read by colorimetric detection at 650 nm wavelength using a Tecan Safire II plate reader.
# [2] = molecular target: T2, Recombinant human integrin αvβ5 (Homo sapiens, UniProt P06756+P18084); assay: Solid Phase Receptor Assay for αvβ5 Function; conditions: binding to vitronectin-coated plate; read-out: αvβ5 SPRA IC50
# T2 construct: purchased R&D Systems 2528-AV
# Procedure: Solid Phase Receptor Assay for αvβ5 Function.
# as §1, with “150 μL TBS+ and 150” for “150 μL TBS+, and 150”, “at 37° C. and then” for “at 37° C., and then”, “the washed vitronectin-coated plate according” for “the washed LAP-coated plate according”, “TBS+/0.1% BSA at 0.5 μg/mL were added” for “TBS+/0.1% BSA were added”, “the plate covered and” for “the plate was covered and”, “peroxidase (R&D Systems DY998) diluted” for “peroxidase (R&D Systems, DY998) diluted”
# [3] = molecular target: T3, Recombinant human integrin αvβ1 (Homo sapiens, UniProt P05556+P06756); assay: Solid Phase Receptor Assay for αvβ1 Function; conditions: binding to fibronectin-coated plate; read-out: αvβ1 SPRA IC50
# T3 construct: purchased R&D Systems 6579-AV
# Procedure: Solid Phase Receptor Assay for αvβ1 Function.
# Wells were washed 3 times with 150 μl TBS+ and 150 μL of blocking buffer (TBS+ with 1% bovine serum albumin, Sigma A7906) were added. The plate was incubated for 1 hr at 37° C. and then washed 3× with TBS+ buffer. […] Compounds were diluted 1:100 into the integrin solution and 50 μL added to empty wells of the washed fibronectin-coated plate according to a standard template with each sample repeated in triplicate. After incubation for two hours at room temperature, the plate was washed 3× with 150 μL of TBS+ buffer. To each well, 50 μL of biotinylated anti-αv antibody (R&D Systems, BAF1219) at 1 μg/mL in TBS+/0.1% BSA were added and the plate covered and incubated for 1 hr at room temperature. After washing the plate 3× with 150 μL of TBS+ buffer, 50 μL of streptavidin-conjugated horseradish peroxidase (R&D Systems, DY998) diluted in TBS+ blocking buffer were added to the wells and the plate incubated for 20 min at room temperature. The plate was washed 3× with TBS+ buffer followed by 50 μL of TMB substrate (Sigma, T4444) added to each well and the plate incubated for 20 min at room temperature. The reaction was optionally stopped with 25 μL of Stop Solution (Sigma S5689). Plates were read by colorimetric detection at 650 nm wavelength using a Tecan Safire II plate reader.
# [4] = molecular target: T4, Recombinant human integrin αvβ3 (Homo sapiens, UniProt P05106+P06756); assay: Solid Phase Receptor Assay for αvβ3 Function; conditions: binding to vitronectin-coated plate; read-out: αvβ3 SPRA IC50
# T4 construct: purchased R&D Systems 3050-AV
# Procedure: Solid Phase Receptor Assay for αvβ3 Function.
# Wells were washed 3 times with 150 μL TBS+ and 150 μL of blocking buffer (TBS+ with 1% bovine serum albumin, Sigma A7906) were added. The plate was incubated for 1 hr at 37° C. and then washed 3× with TBS+ buffer. […] Compounds were diluted 1:100 into the integrin solution and then 50 μL added to empty wells of the washed vitronectin-coated plate according to a standard template with each sample repeated in triplicate. After incubation for two hours at room temperature, the plate was washed 3× with 150 μL of TBS+ buffer. To each well, 50 μL of biotinylated anti-αv antibody (R&D Systems, BAF1219) at 0.5 μg/mL in TBS+/0.1% BSA were added and the plate covered and incubated for 1 hr at room temperature. After washing the plate 3× with 150 μL of TBS+ buffer, 50 μL of streptavidin-conjugated horseradish peroxidase (R&D Systems, DY998) diluted in TBS+ blocking buffer were added to the wells and the plate incubated for 20 min at room temperature. The plate was washed 3× with TBS+ buffer followed by 50 μL of TMB substrate (Sigma, T4444) added to each well and the plate was incubated for 20 min at room temperature. The reaction was optionally stopped with 25 μL of Stop Solution (Sigma, S5689). Plates were read by colorimetric detection at 650 nm wavelength using a Tecan S afire II plate reader.
# T3 sequence (P06756 31-992 limits assumed): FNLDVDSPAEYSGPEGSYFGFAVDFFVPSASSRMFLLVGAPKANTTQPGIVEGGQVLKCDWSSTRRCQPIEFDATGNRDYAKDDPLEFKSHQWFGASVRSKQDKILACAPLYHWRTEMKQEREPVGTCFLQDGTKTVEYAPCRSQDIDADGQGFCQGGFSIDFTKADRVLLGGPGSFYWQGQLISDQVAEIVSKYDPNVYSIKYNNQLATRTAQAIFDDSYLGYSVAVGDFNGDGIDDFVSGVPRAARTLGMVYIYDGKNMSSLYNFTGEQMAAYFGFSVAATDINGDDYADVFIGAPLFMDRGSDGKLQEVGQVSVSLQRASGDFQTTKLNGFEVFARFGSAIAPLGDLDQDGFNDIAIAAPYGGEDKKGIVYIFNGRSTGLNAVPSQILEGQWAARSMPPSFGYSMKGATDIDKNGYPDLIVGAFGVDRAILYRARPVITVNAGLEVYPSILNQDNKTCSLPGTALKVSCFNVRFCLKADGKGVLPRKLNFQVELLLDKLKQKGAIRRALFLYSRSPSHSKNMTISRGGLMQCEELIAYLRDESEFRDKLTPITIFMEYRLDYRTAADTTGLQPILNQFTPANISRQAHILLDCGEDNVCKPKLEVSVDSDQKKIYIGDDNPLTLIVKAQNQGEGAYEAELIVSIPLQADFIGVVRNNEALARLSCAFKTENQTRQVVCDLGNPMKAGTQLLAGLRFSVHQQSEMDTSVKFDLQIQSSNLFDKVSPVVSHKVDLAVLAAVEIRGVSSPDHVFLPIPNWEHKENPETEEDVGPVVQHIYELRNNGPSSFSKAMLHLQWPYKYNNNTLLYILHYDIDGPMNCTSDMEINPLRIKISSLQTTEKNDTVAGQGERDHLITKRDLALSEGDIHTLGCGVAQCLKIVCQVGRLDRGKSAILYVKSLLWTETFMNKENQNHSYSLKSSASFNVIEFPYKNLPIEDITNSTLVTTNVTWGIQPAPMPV
# T3 sequence (P05556 21-728 limits assumed): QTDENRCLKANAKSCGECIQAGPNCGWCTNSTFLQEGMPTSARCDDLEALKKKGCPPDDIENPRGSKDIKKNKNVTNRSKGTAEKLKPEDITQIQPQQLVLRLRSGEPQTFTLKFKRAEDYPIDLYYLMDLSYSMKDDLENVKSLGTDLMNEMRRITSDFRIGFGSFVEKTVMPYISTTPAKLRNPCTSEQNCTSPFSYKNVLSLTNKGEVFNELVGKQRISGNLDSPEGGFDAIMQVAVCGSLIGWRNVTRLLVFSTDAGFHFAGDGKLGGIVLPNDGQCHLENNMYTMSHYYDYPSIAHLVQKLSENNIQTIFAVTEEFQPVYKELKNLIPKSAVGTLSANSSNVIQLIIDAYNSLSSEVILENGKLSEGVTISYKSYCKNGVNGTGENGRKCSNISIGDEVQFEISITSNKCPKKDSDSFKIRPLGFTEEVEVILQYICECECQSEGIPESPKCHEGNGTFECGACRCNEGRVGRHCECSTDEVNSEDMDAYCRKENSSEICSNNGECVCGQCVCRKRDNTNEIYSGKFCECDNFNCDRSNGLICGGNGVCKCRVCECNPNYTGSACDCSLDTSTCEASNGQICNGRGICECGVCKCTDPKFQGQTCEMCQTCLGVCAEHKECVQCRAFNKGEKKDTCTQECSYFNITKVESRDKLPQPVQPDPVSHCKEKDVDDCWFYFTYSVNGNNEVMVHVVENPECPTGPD
# T1 sequence (P06756 31-992 limits assumed): as the sequence (P06756 31-992 limits assumed) above
# T1 sequence (P18564 22-707 limits assumed): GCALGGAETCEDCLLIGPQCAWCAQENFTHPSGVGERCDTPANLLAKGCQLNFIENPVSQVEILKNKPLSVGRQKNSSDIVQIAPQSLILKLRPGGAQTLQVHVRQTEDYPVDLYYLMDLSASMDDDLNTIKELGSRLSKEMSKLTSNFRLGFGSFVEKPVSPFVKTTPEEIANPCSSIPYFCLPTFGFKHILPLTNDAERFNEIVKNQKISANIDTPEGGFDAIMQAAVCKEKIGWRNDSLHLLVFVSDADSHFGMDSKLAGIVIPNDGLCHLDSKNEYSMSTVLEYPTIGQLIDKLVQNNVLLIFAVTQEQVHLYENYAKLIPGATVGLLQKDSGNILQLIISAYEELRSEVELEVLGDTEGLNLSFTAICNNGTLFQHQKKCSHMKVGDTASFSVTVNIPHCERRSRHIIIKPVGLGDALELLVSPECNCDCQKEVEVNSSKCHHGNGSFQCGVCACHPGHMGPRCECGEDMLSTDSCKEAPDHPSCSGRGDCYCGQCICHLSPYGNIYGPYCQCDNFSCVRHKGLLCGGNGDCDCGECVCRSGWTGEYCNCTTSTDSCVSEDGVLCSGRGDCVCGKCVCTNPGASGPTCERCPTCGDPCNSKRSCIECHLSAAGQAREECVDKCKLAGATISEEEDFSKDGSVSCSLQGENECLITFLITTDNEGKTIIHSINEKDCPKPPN
# T4 sequence (P06756 31-992 limits assumed): as the sequence (P06756 31-992 limits assumed) above
# T4 sequence (P05106 27-718 limits assumed): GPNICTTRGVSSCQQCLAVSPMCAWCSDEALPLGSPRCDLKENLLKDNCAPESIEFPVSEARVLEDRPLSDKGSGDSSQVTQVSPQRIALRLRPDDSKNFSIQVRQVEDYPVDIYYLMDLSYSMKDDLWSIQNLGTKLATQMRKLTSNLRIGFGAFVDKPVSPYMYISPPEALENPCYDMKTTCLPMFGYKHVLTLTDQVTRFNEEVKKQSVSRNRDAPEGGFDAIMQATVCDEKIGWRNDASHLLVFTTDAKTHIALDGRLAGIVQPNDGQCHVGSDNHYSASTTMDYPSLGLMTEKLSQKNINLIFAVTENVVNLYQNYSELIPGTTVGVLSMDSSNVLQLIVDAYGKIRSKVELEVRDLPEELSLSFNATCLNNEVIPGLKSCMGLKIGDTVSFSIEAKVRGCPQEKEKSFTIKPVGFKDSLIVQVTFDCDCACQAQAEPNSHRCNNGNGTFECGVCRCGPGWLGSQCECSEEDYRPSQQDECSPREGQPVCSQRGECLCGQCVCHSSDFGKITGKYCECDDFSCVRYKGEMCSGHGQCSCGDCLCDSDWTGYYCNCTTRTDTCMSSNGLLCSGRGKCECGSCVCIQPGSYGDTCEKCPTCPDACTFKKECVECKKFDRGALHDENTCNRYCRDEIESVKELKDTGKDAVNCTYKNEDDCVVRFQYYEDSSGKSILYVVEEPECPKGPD
# T2 sequence (P06756 31-992 limits assumed): as the sequence (P06756 31-992 limits assumed) above
# T2 sequence (P18084 24-719 limits assumed): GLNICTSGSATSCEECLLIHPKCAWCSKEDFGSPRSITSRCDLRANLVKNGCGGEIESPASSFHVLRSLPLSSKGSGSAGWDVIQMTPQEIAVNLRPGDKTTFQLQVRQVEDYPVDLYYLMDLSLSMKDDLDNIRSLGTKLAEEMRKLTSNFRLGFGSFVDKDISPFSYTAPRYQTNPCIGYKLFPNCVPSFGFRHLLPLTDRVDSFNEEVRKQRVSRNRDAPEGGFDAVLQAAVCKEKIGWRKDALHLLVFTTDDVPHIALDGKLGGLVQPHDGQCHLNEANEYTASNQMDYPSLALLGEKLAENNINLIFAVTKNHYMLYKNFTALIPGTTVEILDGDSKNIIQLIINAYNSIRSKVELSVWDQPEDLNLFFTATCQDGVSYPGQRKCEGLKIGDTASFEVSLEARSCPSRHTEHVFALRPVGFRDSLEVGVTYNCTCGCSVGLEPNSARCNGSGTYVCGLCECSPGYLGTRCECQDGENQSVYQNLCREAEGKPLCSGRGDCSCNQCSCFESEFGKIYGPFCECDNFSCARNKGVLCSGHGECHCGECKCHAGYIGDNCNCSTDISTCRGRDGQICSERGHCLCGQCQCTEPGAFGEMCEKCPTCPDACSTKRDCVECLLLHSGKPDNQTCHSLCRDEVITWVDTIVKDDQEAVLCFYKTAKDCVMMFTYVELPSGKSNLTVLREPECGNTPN
Structure (SMILES),IC50 [1] [nM],IC50 [2] [nM],IC50 [3] [nM],IC50 [4] [nM]
"COCC(C)(C)c1cc(Cl)cc([C@H](CC(=O)O)NC(=O)CNC(=O)c2cc(O)cc(NC3=NCC(O)CN3)c2)c1 (stereo partly drawn) [Example 14, (3S)-3-(3-chloro-5-(1-methoxy-2-methylpropan-2-yl)phenyl)-3-(2-(3-hydroxy-5-((5-hydroxy-1,4,5,6-tetrahydropyrimidin-2-yl)amino)benzamido)acetamido)propanoic acid]",0.4,0.3,2.4,1.7
"CC(C)(CO)c1cc(Cl)cc([C@H](CC(=O)O)NC(=O)CNC(=O)c2cc(O)cc(NC3=NCC(O)CN3)c2)c1 (stereo partly drawn) [Example 15, (3S)-3-(3-chloro-5-(1-hydroxy-2-methylpropan-2-yl)phenyl)-3-(2-(3-hydroxy-5-((5-hydroxy-1,4,5,6-tetrahydropyrimidin-2-yl)amino)benzamido)acetamido)propanoic acid]",0.4,0.4,2.9,3.3
"COCC1(c2cc(Cl)cc([C@H](CC(=O)O)NC(=O)CNC(=O)c3cc(O)cc(NC4=NCC(O)CN4)c3)c2)CCOCC1 (stereo partly drawn) [Example 16, (3S)-3-(3-chloro-5-(4-(Methoxymethyl)tetrahydro-2H-pyran-4-yl)phenyl)-3-(2-(3-hydroxy-5-((5-hydroxy-1,4,5,6-tetrahydropyrimidin-2-yl)amino)benzamido)acetamido)propanoic acid]",0.5,0.6,3.3,1.7
"O=C(O)C[C@H](NC(=O)CNC(=O)c1cc(O)cc(NC2=NCC(O)CN2)c1)c1cc(Cl)cc(C2(CO)CCOCC2)c1 (stereo partly drawn) [Example 17, (3S)-3-(3-chloro-5-(4-(hydroxymethyl)tetrahydro-2H-pyran-4-yl)phenyl)-3-(2-(3-hydroxy-5-((5-hydroxy-1,4,5,6-tetrahydropyrimidin-2-yl)amino)benzamido)acetamido)propanoic acid]",0.5,0.5,3,4
"CC(C)(C)c1cc(-c2cccnc2)cc([C@H](CC(=O)O)NC(=O)CNC(=O)c2cc(O)cc(NC3=NCC(O)CN3)c2)c1 (stereo partly drawn) [Example 18, (3S)-3-(3-(tert-butyl)-5-(pyridin-3-yl)phenyl)-3-(2-(3-hydroxy-5-((5-hydroxy-1,4,5,6-tetrahydropyrimidin-2-yl)amino)benzamido)acetamido)propanoic acid]",0.6,21,3.4,14.5
"CC(C)(C)c1cc(-c2cncnc2)cc([C@H](CC(=O)O)NC(=O)CNC(=O)c2cc(O)cc(NC3=NCC(O)CN3)c2)c1 (stereo partly drawn) [Example 19, (3S)-3-(3-(tert-butyl)-5-(pyrimidin-5-yl)phenyl)-3-(2-(3-hydroxy-5-((5-hydroxy-1,4,5,6-tetrahydropyrimidin-2-yl)amino)benzamido)acetamido)propanoic acid]",0.7,21,4.1,8.8
"O=C(O)C[C@H](NC(=O)CNC(=O)c1cc(O)cc(NC2=NCC(O)CN2)c1)c1cc(Cl)cc(C2(CF)CCOCC2)c1 (stereo partly drawn) [Example 20, (3S)-3-(3-chloro-5-(4-(fluoromethyl)tetrahydro-2H-pyran-4-yl)phenyl)-3-(2-(3-hydroxy-5-((5-hydroxy-1,4,5,6-tetrahydropyrimidin-2-yl)amino)benzamido)acetamido)propanoic acid]",1.4,0.5,4.9,3.7
